Experimental data reported in ChEMBL document CHEMBL4007495, “Substrate and inhibitor specificity of kynurenine monooxygenase from Cytophaga hutchinsonii” (Bioorg Med Chem Lett, 2017).
Activity calls are given as the source filed them. The calls are words filed in the database; no cut-off is given here.

Assays:
[1] = Competitive inhibition of Cytophaga hutchinsonii KMO using 5-Br-kynurenine as substrate assessed as decrease in NADPH consumption by UV/Vis spectrophotometer
Cytophaga hutchinsonii [2] = test: Activity at Cytophaga hutchinsonii KMO by ESI-LC/MS method
Cytophaga hutchinsonii [3] = test: Activity at Cytophaga hutchinsonii KMO assessed as NADPH consumption by UV/Vis spectrophotometer
Cytophaga hutchinsonii [4] = test: Activity at Cytophaga hutchinsonii KMO at 0.2 mM after 30 mins by HPLC method
Cytophaga hutchinsonii [5] = test: Ratio of Kcat to Km for Cytophaga hutchinsonii KMO

SMILES: Nc1c(Cl)cccc1C(=O)CC(N)C(=O)O (stereo not drawn)
- Ki [1]: 13.8 µM

SMILES: Nc1ccc(Br)cc1C(=O)C[C@H](N)C(=O)O
- Activity (Cytophaga hutchinsonii [2]): Active
- Km (Cytophaga hutchinsonii [3]): 4.5 µM
- kcat (Cytophaga hutchinsonii [3]): 0.6 s⁻¹
- Activity (Cytophaga hutchinsonii [4]): Active
- kcat/Km (Cytophaga hutchinsonii [5]): 1.3 ×10⁵ /M/s

SMILES: COc1ccc(C(=O)NCC(=O)O)cc1OC
- Ki [1]: 1000 µM

SMILES: O=C(O)CNC(=O)c1ccc(Cl)c(Cl)c1
- Ki [1]: 34 µM

SMILES: Nc1ccccc1C(=O)C[C@H](N)C(=O)O
- Km (Cytophaga hutchinsonii [3]): 67 µM
- kcat (Cytophaga hutchinsonii [3]): 2 s⁻¹
- kcat/Km (Cytophaga hutchinsonii [5]): 5.3 ×10⁴ /M/s

SMILES: Cc1cc(Br)cc(C(=O)CC(N)C(=O)O)c1N (stereo not drawn)
- Ki [1]: 10.2 µM

SMILES: Nc1c(Br)cc(Br)cc1C(=O)C[C@H](N)C(=O)O
- Ki [1]: 1.5 µM

SMILES: Cc1cccc(C(=O)CC(N)C(=O)O)c1N (stereo not drawn)
- Ki [1]: 8.6 µM

SMILES: Nc1c(Cl)cc(Br)cc1C(=O)CC(N)C(=O)O (stereo not drawn)
- Ki [1]: 11 µM

SMILES: Nc1ccc(Cl)cc1C(=O)C[C@H](N)C(=O)O
- Km (Cytophaga hutchinsonii [3]): 2 µM
- kcat (Cytophaga hutchinsonii [3]): 0.8 s⁻¹
- kcat/Km (Cytophaga hutchinsonii [5]): 4 ×10⁵ /M/s
